Test results as given in the NIST ThermoML archive (doi:10.1021/acs.jced.6b00542).

Assay: xn = mol fraction of the nth substance listed
Conditions: for speed of sound: 100 kPa, Frequency=3 MHz, Sing-around technique in a fixed-path interferometer; for speed of sound / viscosity / mass density: Liquid; for viscosity / mass density: 102 kPa; for viscosity: Concentric cylinders viscometry; for mass density: Vibrating tube method; for surface tension liquid-gas: 294.5 K, Pendant drop shape

CCCCc1ccccc1 [butylbenzene] + CCCCCCCCCCCCCC
Conditions | mass density [kg/m3] | speed of sound [m/s] | viscosity [mPa·s]
293.15 K, x1 = 0.1414 | 770.92 | 1330.1 | 2.06
293.15 K, x1 = 0.2704 | 779.61 | 1329.5 | 1.86
293.15 K, x1 = 0.3915 | 788.74 | 1329.7 | 1.69
293.15 K, x1 = 0.4988 | 797.91 | 1330.9 | 1.55
293.15 K, x1 = 0.5961 | 807.14 | 1332.5 | 1.44
293.15 K, x1 = 0.6892 | 817.1 | 1334.9 | 1.34
293.15 K, x1 = 0.7751 | 827.32 | 1338.1 | 1.25
293.15 K, x1 = 0.8553 | 837.74 | 1342.1 | 1.18
293.15 K, x1 = 0.9299 | 849.02 | 1347.7 | 1.12
293.15 K, x1 = 1 | 860.51 | 1353.7 | 1.05
303.15 K, x1 = 0.1414 | 763.79 | 1292.6 | 1.7
303.15 K, x1 = 0.2704 | 772.41 | 1292.1 | 1.54
303.15 K, x1 = 0.3915 | 781.46 | 1292.3 | 1.42
303.15 K, x1 = 0.4988 | 790.54 | 1293.4 | 1.31
303.15 K, x1 = 0.5961 | 799.68 | 1294.9 | 1.22
303.15 K, x1 = 0.6892 | 809.54 | 1297.2 | 1.14
303.15 K, x1 = 0.7751 | 819.66 | 1300.2 | 1.07
303.15 K, x1 = 0.8553 | 829.96 | 1303.8 | 1.02
303.15 K, x1 = 0.9299 | 841.12 | 1309.2 | 0.965
303.15 K, x1 = 1 | 852.49 | 1314.9 | 0.91
313.15 K, x1 = 0.1414 | 756.65 | 1255.6 | 1.42
313.15 K, x1 = 0.2704 | 765.18 | 1255.1 | 1.31
313.15 K, x1 = 0.3915 | 774.14 | 1255.3 | 1.21
313.15 K, x1 = 0.4988 | 783.14 | 1256.3 | 1.12
313.15 K, x1 = 0.5961 | 792.18 | 1257.6 | 1.05
313.15 K, x1 = 0.6892 | 801.94 | 1259.8 | 0.987
313.15 K, x1 = 0.7751 | 811.95 | 1262.7 | 0.932
313.15 K, x1 = 0.8553 | 822.15 | 1266.1 | 0.886
313.15 K, x1 = 0.9299 | 833.19 | 1271.2 | 0.843
313.15 K, x1 = 1 | 844.43 | 1276.6 | 0.801
323.15 K, x1 = 0.1414 | 749.49 | 1219.1 | 1.21
323.15 K, x1 = 0.2704 | 757.94 | 1218.6 | 1.12
323.15 K, x1 = 0.3915 | 766.81 | 1218.7 | 1.04
323.15 K, x1 = 0.4988 | 775.71 | 1219.6 | 0.973
323.15 K, x1 = 0.5961 | 784.66 | 1220.9 | 0.915
323.15 K, x1 = 0.6892 | 794.32 | 1223 | 0.863
323.15 K, x1 = 0.7751 | 804.22 | 1225.6 | 0.818
323.15 K, x1 = 0.8553 | 814.31 | 1228.9 | 0.78
323.15 K, x1 = 0.9299 | 825.22 | 1233.7 | 0.744
323.15 K, x1 = 1 | 836.34 | 1238.7 | 0.713
333.15 K, x1 = 0.1414 | 742.31 | 1183.2 | 1.05
333.15 K, x1 = 0.2704 | 750.67 | 1182.7 | 0.973
333.15 K, x1 = 0.3915 | 759.45 | 1182.7 | 0.908
333.15 K, x1 = 0.4988 | 768.25 | 1183.5 | 0.853
333.15 K, x1 = 0.5961 | 777.11 | 1184.7 | 0.806
333.15 K, x1 = 0.6892 | 786.65 | 1186.6 | 0.762
333.15 K, x1 = 0.7751 | 796.45 | 1189.1 | 0.725
333.15 K, x1 = 0.8553 | 806.42 | 1192.1 | 0.691
333.15 K, x1 = 0.9299 | 817.22 | 1196.7 | 0.662
333.15 K, x1 = 1 | 828.21 | 1201.4 | 0.636
343.15 K, x1 = 0.1414 | 735.2 | – | 0.912
343.15 K, x1 = 0.2704 | 743.4 | – | 0.852
343.15 K, x1 = 0.3915 | 752 | – | 0.8
343.15 K, x1 = 0.4988 | 760.8 | – | 0.753
343.15 K, x1 = 0.5961 | 769.6 | – | 0.716
343.15 K, x1 = 0.6892 | 779 | – | 0.678
343.15 K, x1 = 0.7751 | 788.7 | – | 0.647
343.15 K, x1 = 0.8553 | 798.5 | – | 0.619
343.15 K, x1 = 0.9299 | 809.2 | – | 0.592
343.15 K, x1 = 1 | 819.9 | – | 0.571
353.15 K, x1 = 0.1414 | 728 | – | 0.804
353.15 K, x1 = 0.2704 | 736.1 | – | 0.754
353.15 K, x1 = 0.3915 | 744.6 | – | 0.711
353.15 K, x1 = 0.4988 | 753.3 | – | 0.671
353.15 K, x1 = 0.5961 | 762 | – | 0.639
353.15 K, x1 = 0.6892 | 771.3 | – | 0.608
353.15 K, x1 = 0.7751 | 780.9 | – | 0.581
353.15 K, x1 = 0.8553 | 790.6 | – | 0.557
353.15 K, x1 = 0.9299 | 801.1 | – | 0.534
353.15 K, x1 = 1 | 811.7 | – | 0.516
363.15 K, x1 = 0.1414 | 720.7 | – | 0.715
363.15 K, x1 = 0.2704 | 728.7 | – | 0.674
363.15 K, x1 = 0.3915 | 737.1 | – | 0.637
363.15 K, x1 = 0.4988 | 745.7 | – | 0.604
363.15 K, x1 = 0.5961 | 754.3 | – | 0.576
363.15 K, x1 = 0.6892 | 763.5 | – | 0.55
363.15 K, x1 = 0.7751 | 773 | – | 0.526
363.15 K, x1 = 0.8553 | 782.5 | – | 0.505
363.15 K, x1 = 0.9299 | 793 | – | 0.486
363.15 K, x1 = 1 | 803.4 | – | 0.469
373.15 K, x1 = 0.1414 | 713.3 | – | 0.641
373.15 K, x1 = 0.2704 | 721.2 | – | 0.606
373.15 K, x1 = 0.3915 | 729.5 | – | 0.575
373.15 K, x1 = 0.4988 | 738 | – | 0.547
373.15 K, x1 = 0.5961 | 746.5 | – | 0.523
373.15 K, x1 = 0.6892 | 755.6 | – | 0.5
373.15 K, x1 = 0.7751 | 764.9 | – | 0.48
373.15 K, x1 = 0.8553 | 774.3 | – | 0.461
373.15 K, x1 = 0.9299 | 784.7 | – | 0.444
373.15 K, x1 = 1 | 795 | – | 0.43

Conditions | surface tension liquid-gas [mN/m]
x1 = 0.1414 | 26.5
x1 = 0.2704 | 26.7
x1 = 0.3915 | 27
x1 = 0.4988 | 27
x1 = 0.5961 | 27.3
x1 = 0.6892 | 27.3
x1 = 0.7751 | 27.8
x1 = 0.8553 | 28
x1 = 0.9299 | 28.3
